Test results reported in patent US20230040909A1 (priority 2019, published 2023).
Converted amounts (≈) assume the structure as drawn. Read-outs that look alike come from different tables or passages of the source.

Legend:
M. tb H37Rv [1] = assay: microbe, parasite or virus in culture; type: cell-based, Mycobacterium tuberculosis; conditions: Mycobacterium tuberculosis, H37RV; for MIC: read-out: M. tb H37Rv: MIC-MABA
VERO cell cytotoxicity = type: cell-based; conditions: African green monkey, VERO cells
From the text: The procedures described in Falzari 2005 were used to generate the data shown in column 2 of Table 4.

M. tb H37Rv [2] = assay: microbe, parasite or virus in culture; type: cell-based; conditions: Mycobacterium tuberculosis; for MIC: read-out: M. tb H37Rv: MIC-LORA; for inhibition at 20 µg/mL: at 20 μg/mL, read-out: M. tb H37Rv: MIC-LORA: Comment (% inhibition)
Mycobacterium abscessus = assay: M. ab_ATCC MIC MHII; type: cell-based
From the text: The procedure described in Franz 2017 was used to generate the data shown in column 5 of Table 4.

[3] = Mycobacteroides abscessus; read-out: M. ab_ATCC: MIC MHII: MIC

Row | SMILES | MIC (M. tb H37Rv [1]) [µg/mL] | IC50 (VERO cell cytotoxicity) [µg/mL] | MIC (M. tb H37Rv [2]) [µg/mL] | MIC (Mycobacterium abscessus; [3]) [µg/mL] | inhibition at 20 µg/mL (M. tb H37Rv [2]) [%] | MIC (Mycobacterium abscessus; Mycobacteroides abscessus, read-out: M. ab_ATCC: MIC MHII: MIC) [µg/mL] | inhibition at 1 µg/mL (M. tb H37Rv [1]; at 1 ug/mL, read-out: M. tb H37Rv: MABA % inhibition) [%]
1 | Cc1cc(C)c2cc(C(=O)NC3CC[Si](C)(C)C3)[nH]c2c1 (racemic) [MPL-296, N-(1,1-dimethylsilolan-3-yl)-4,6-dimethyl-1H-indole-2-carboxamide] | 0.0151 (≈ 0.0503 µM) | 13.8 (≈ 45.9 µM) | 2.3 (≈ 7.65 µM) | 0.062 (≈ 0.206 µM) | – | – | –
2 | C[Si]1(C)CCC(NC(=O)c2cc3c(Cl)cc(Cl)cc3[nH]2)C1 (racemic) [MPL-399, 4,6-dichloro-N-(1,1-dimethylsilolan-3-yl)-1H-indole-2-carboxamide] | < 0.004 | > 20 | 7.81 (≈ 22.9 µM) | 0.062 (≈ 0.182 µM) | – | – | –
3 | C[Si]1(C)CC[C@@H](NC(=O)c2cc3c(Cl)cc(Cl)cc3[nH]2)C1 (single isomer, unassigned) [MPL-399A] | 0.03 (≈ 0.0879 µM) | > 64 | – | 0.125 (≈ 0.366 µM) | – | – | –
4 | C[Si]1(C)CC[C@H](NC(=O)c2cc3c(Cl)cc(Cl)cc3[nH]2)C1 (single isomer, unassigned) [MPL-399B] | 0.003 (≈ 0.00879 µM) | 52 (≈ 152 µM) | – | 0.125 (≈ 0.366 µM) | – | – | –
5 | COc1cc(F)cc2[nH]c(C(=O)NC3CC[Si](C)(C)CC3)cc12 [MPL-196, N-(1,1-dimethylsilinan-4-yl)-6-fluoro-4-methoxy-1H-indole-2-carboxamide] | 0.0048 (≈ 0.0144 µM) | > 32 | > 32 | > 64 | – | – | –
6 | O=C(NC1CC[Si]2(CCCC2)CC1)c1cc2c(F)cc(F)cc2[nH]1 [MPL-251, 4,6-difluoro-N-(5-silaspiro[4.5]decan-8-yl)-1H-indole-2-carboxamide] | 0.0043 (≈ 0.0123 µM) | > 20 | 7 (≈ 20.1 µM) | > 64 | – | – | –
7 | O=C(NC1CC[Si]2(CCCC2)CC1)c1cc2c(Cl)cc(Cl)cc2[nH]1 [MPL-252, 4,6-dichloro-N-(5-silaspiro[4.5]decan-8-yl)-1H-indole-2-carboxamide] | 0.014 (≈ 0.0367 µM) | > 20 | – | 64 (≈ 168 µM) | – | – | –
8 | O=C(NC1CC[Si]2(CCCCC2)CC1)c1cc2c(F)cc(F)cc2[nH]1 [MPL-256, 4,6-difluoro-N-(6-silaspiro[5.5]undecan-3-yl)-1H-indole-2-carboxamide] | 0.0041 (≈ 0.0113 µM) | > 20 | 3.4 (≈ 9.38 µM) | > 64 | – | – | –
9 | O=C(NC1CC[Si]2(CCCCC2)CC1)c1cc2c(Cl)cc(Cl)cc2[nH]1 [MPL-257, 4,6-dichloro-N-(6-silaspiro[5.5]undecan-3-yl)-1H-indole-2-carboxamide] | 0.0045 (≈ 0.0114 µM) | – | > 20 | > 64 | 68 | – | –
10 | Cc1cc(C)c2cc(C(=O)NC3CCC[Si](C)(C)CC3)[nH]c2c1 (stereo not shown) [MPL-262, N-(1,1-dimethylsilepan-4-yl)-4,6-dimethyl-1H-indole-2-carboxamide] | 0.009 (≈ 0.0274 µM) | – | 16 (≈ 48.7 µM) | 0.5 (≈ 1.52 µM) | – | – | –
11 | Cc1cc(C)c2cc(C(=O)NC3CC[Si]4(CCCC4)CC3)[nH]c2c1 [MPL-264, 4,6-dimethyl-N-(5-silaspiro[4.5]decan-8-yl)-1H-indole-2-carboxamide] | 0.011 (≈ 0.0323 µM) | > 20 | > 20 | 64 (≈ 188 µM) | 85 | – | –
12 | Cc1cc(C)c2cc(C(=O)NC3CC[Si]4(CCCCC4)CC3)[nH]c2c1 [MPL-265, 4,6-dimethyl-N-(6-silaspiro[5.5]undecan-3-yl)-1H-indole-2-carboxamide] | 0.014 (≈ 0.0395 µM) | > 20 | > 20 | > 64 | 84 | – | –
13 | C[Si]1(C)CCCC(NC(=O)c2cc3c(F)cc(F)cc3[nH]2)CC1 (stereo not shown) [MPL-286, N-(1,1-dimethylsilepan-4-yl)-4,6-difluoro-1H-indole-2-carboxamide] | 0.0044 (≈ 0.0131 µM) | > 20 | 7.9 (≈ 23.5 µM) | > 64 | – | – | –
14 | Cc1cc(C)c2cc(C(=O)NC3CCC[Si](C)(C)CCC3)[nH]c2c1 [MPL-303, N-(1,1-dimethylsilocan-5-yl)-4,6-dimethyl-1H-indole-2-carboxamide] | < 0.004 | > 20 | 4.23 (≈ 12.3 µM) | 4 (≈ 11.7 µM) | – | – | –
15 | Cc1cc(C)c2cc(C(=O)NC3CC[Si](C)(C)CC3)[nH]c2c1 [MPL-317, N-(1,1-dimethylsilinan-4-yl)-4,6-dimethyl-1H-indole-2-carboxamide] | 0.031 (≈ 0.0986 µM) | > 20 | > 20 | 0.062 (≈ 0.197 µM) | – | – | –
16 | C[Si]1(C)CCCC(NC(=O)c2cc3c(C(F)(F)F)cc(C(F)(F)F)cc3[nH]2)CC1 (stereo not shown) [MPL-324, N-(1,1-dimethylsilepan-4-yl)-4,6-bis(trifluoromethyl)-1H-indole-2-carboxamide] | 0.0154 (≈ 0.0353 µM) | > 20 | > 20 | > 64 | – | – | –
17 | C[Si]1(C)CCCCC(NC(=O)c2cc3c(C(F)(F)F)cc(C(F)(F)F)cc3[nH]2)CC1 (stereo not shown) [MPL-325, N-(1,1-dimethylsilocan-4-yl)-4,6-bis(trifluoromethyl)-1H-indole-2-carboxamide] | 0.0305 (≈ 0.0677 µM) | 16.4 (≈ 36.4 µM) | > 20 | > 64 | – | – | –
18 | C[Si]1(C)CCCC(NC(=O)c2cc3c(C(F)(F)F)cc(C(F)(F)F)cc3[nH]2)CCC1 [MPL-326, N-(1,1-dimethylsilocan-5-yl)-4,6-bis(trifluoromethyl)-1H-indole-2-carboxamide] | 0.0305 (≈ 0.0677 µM) | 15.4 (≈ 34.2 µM) | > 20 | > 64 | – | – | –
19 | C[Si]1(C)CCC(NC(=O)c2cc3c(C(F)(F)F)cc(C(F)(F)F)cc3[nH]2)C1 (stereo not shown) [MPL-327, N-(1,1-dimethylsilolan-3-yl)-4,6-bis(trifluoromethyl)-1H-indole-2-carboxamide] | 0.00752 (≈ 0.0184 µM) | > 20 | > 20 | > 64 | – | – | –
20 | Cc1c(C(=O)NC2CC[Si](C)(C)CC2)[nH]c2cc(Cl)cc(Cl)c12 [MPL-334, 4,6-dichloro-N-(1,1-dimethylsilinan-4-yl)-3-methyl-1H-indole-2-carboxamide] | < 0.004 | > 20 | > 20 | > 64 | – | – | –
21 | Cc1c(C(=O)NC2CC[Si](C)(C)CC2)[nH]c2cc(F)cc(F)c12 [MPL-335, N-(1,1-dimethylsilinan-4-yl)-4,6-difluoro-3-methyl-1H-indole-2-carboxamide] | < 0.004 | > 20 | > 20 | > 64 | – | – | –
22 | C[Si]1(C)CCC(NC(=O)c2cc3c(C(F)(F)F)cc(C(F)(F)F)cc3[nH]2)CC1 [MPL-336, N-(1,1-dimethylsilinan-4-yl)-4,6-bis(trifluoromethyl)-1H-indole-2-carboxamide] | 0.0306 (≈ 0.0724 µM) | > 20 | > 20 | – | – | > 64 | –
23 | Cc1cc(Br)c2cc(C(=O)NC3CC[Si](C)(C)CC3)[nH]c2c1 [MPL-337, 4-bromo-N-(1,1-dimethylsilinan-4-yl)-6-methyl-1H-indole-2-carboxamide] | 0.007 (≈ 0.0185 µM) | > 20 | > 20 | > 64 | – | – | –
24 | Cc1cc(Br)cc2[nH]c(C(=O)NC3CC[Si](C)(C)CC3)cc12 [MPL-338, 6-bromo-N-(1,1-dimethylsilinan-4-yl)-4-methyl-1H-indole-2-carboxamide] | < 0.004 | > 20 | > 20 | > 64 | – | – | –
25 | CC(CC[Si](C)(C)C)NC(=O)c1cc2c(Cl)cc(Cl)cc2[nH]1 (stereo not shown) [MPL-360, 4,6-dichloro-N-(1-methyl-3-trimethylsilyl-propyl)-1H-indole-2-carboxamide] | – | 15.4 (≈ 43.1 µM) | > 20 | – | – | – | 87
